# Measured values published in EP0133795B1 (THE McLEAN HOSPITAL CORPORATION, priority 1983, dated 1985).
# How the values were obtained:
# [1] = test system: general motor activity of mice; assay: General locomotor activity of mice (Stoelting electronic activity monitor); assay type: in vivo, Balb/c mice
# [2] = test system: bicuculline-induced epileptic seizures; assay: Delay of onset of bicuculline-induced seizures (anticonvulsant activity); assay type: in vivo, mouse; settings: for Onset of seizures: % Saline Control / Survival Time: % Saline Control: 24 hr pretreatment
# [3] = 16 mg/kg, bicuculline 0.3 mg/kg
# [4] = 30 mg/kg, bicuculline 0.3 mg/kg
# [5] = 84 mg/kg, bicuculline 0.3 mg/kg, mean ± SEM, n ≥ 6
substance,measurement,setting,value
(3-Cholesteryl)-gamma-Aminobutyrate [Compound 6],In Vivo Inhibition of General Motor Activity,[1]; graded 0-5,5
same,activity in the general motor activity test (in words),"[1]; i.p., mice",active
same,i.p. injected dose at which motor activity was reduced by 50%,"[1]; mice, Fig. 1, n = 6 per dose, 60 min",17 µmol/kg
same,Onset of seizures: % Saline Control,"[2]; 3 mg/kg, bicuculline 0.3 mg/kg",120 ± 6 % Saline Control
same,Survival Time: % Saline Control,"[2]; 3 mg/kg, bicuculline 0.3 mg/kg",95 ± 15 % Saline Control
same,Onset of seizures: % Saline Control,[2]; [3],129 ± 4 % Saline Control
same,Survival Time: % Saline Control,[2]; [3],101 ± 20 % Saline Control
same,Onset of seizures: % Saline Control,[2]; [4],130 ± 8 % Saline Control
same,Survival Time: % Saline Control,[2]; [4],104 ± 18 % Saline Control
same,Onset of seizures: % Saline Control,[2]; [5],137 ± 7 % Saline Control
same,Survival Time: % Saline Control,[2]; [5],109 ± 9 % Saline Control
same,delay of onset of seizures,"[2]; 24 hr after i.p. injection of 30 mg/kg, bicuculline 0.3 mg/kg",30%
same,In Vivo Delay of Time of Onset of Bicuculline-induced seizures,[2]; graded 0-5,5
